Experimental data from patent publication US9056916B2, “Method and assay kit for detection of toxicity induced by pyrrolizidine alkaloids” (priority 2012, dated 2015).

How the values were obtained:
Format in all cases: binding, rabbit
antiserum II = assay: Competitive ELISA and cross-reactivity test of antiserum II; settings: antiserum II 1:30000, pure PA as competitor
Experimental: In competitive ELISA assay, one hundred microliters of coating antigen, BSA-pyrrole adducts, in PBS buffer was added to wells of a 96-well microtiter plate. The plates were incubated at 4° C. overnight or room temperature for 2 h. Serial dilutions of the competitor, N-acetyl-L-lysine-pyrrole, were prepared in PBST buffer. The resulting solution was mixed (1:1 v/v) with diluted antiserum in 5% nonfat milk dissolved in PBST buffer. The mixture was incubated at 4° C. overnight. The following day, the same procedure as in the titer analysis was followed. The absorbance at dual wavelength (450-650 nm) was read.

purified N-antibody = assay: Competitive Western blot of purified N-antibody; settings: competitor 0.1 mM or 1 mM, concentration-dependent
Experimental: (§1) In Western and competitive Western blot assay, coating antigen was loaded and resolved by 7.5% SDS-PAGE and then transferred to nitrocellulose membranes. Blots were then blocked with 5% nonfat milk in PBST buffer for 1 h at room temperature. Blotted membranes were incubated with 1/4000 dilution of purified N-antibody in PBST buffer with 5% nonfat milk in the absence or 0.1 mM or 1 mM of pyrrole-(NHMe)2 at 4° C. overnight. The following day, after washing three times with PBST buffer, membranes were incubated with anti-rabbit IgG-horseradish peroxidase solution (1/5000 in PBST buffer with 5% nonfat milk) for 1 h at room temperature. After washing, protein bands were detected by chemiluminescence with an ECL detection kit. […] Moreover, the immune response was inhibited by pyrrole-containing competitor, pyrrole-(NHMe)2, in competitive Western blot assays, and the inhibitory effect was concentration-dependent manner (FIG. 9).

purified S-antibody = assay: Competitive Western blot of purified S-antibody; settings: competitor 0.1 mM or 1 mM, concentration-dependent
Experimental: as §1, with “S-antibody” for “N-antibody”, “pyrrole-(SMe)2” for “pyrrole-(NHMe)2”, “pyrrole-(SMe)2,” for “pyrrole-(NHMe)2,”, “(See FIG. 11).” for “(FIG. 9).”

Row | Compound | cross-reactivity with antiserum II (antiserum II) | further results
1 | C[C@H]1C(=O)O[C@@H]2CCN3CC=C(COC(=O)[C@](C)(O)[C@]1(C)O)[C@H]23 [monocrotaline] | no cross-reactivity | –
2 | pyrrole-(NHMe)2 | – | inhibition of immune response of N-antibody with BSA-pyrrole adducts (purified N-antibody): inhibited
3 | pyrrole-(SMe)2 | – | inhibition of immune response of S-antibody with BSA-pyrrole adducts (purified S-antibody): inhibited
4 | retrorsine | no cross-reactivity | –
